Laboratory results reported in ChEMBL document CHEMBL3885861, “Open TG-GATES”.

Organism: Rattus norvegicus
Assay: Open TG-GATES - Regimen: Daily Repeat
Format: toxicity, organism-based, Sprague-Dawley
Parameters: regimen Daily Repeat, gender Male, age 6 weeks
Conditions: in vivo, po, route gavage; for A/G / ALP / ALT / AST / BUN / CRE / Ca / Cl / DBIL / GLC / IP / K / LDH / Na / PL / RALB / TBIL / TC / TG / TP / gamma-GTP: tissue Plasma; for APTT / Bas / Eos / Fbg / Hb / Ht / Lym / MCH / MCHC / MCV / Mono / Neu / PT / Plat / RBC / Ret / WBC: tissue Blood; for KIDNEY_L / KIDNEY_R / KIDNEY_TOTAL: tissue Kidney; for LIVER: tissue Liver
[1] = 1 mg/kg, […], dose level Low, time 14 day
[2] = 1 mg/kg, […], dose level Low, time 28 day
[3] = 2 mg/kg, 72 h, dose level Middle, time 3 day
[4] = 2 mg/kg, […], dose level Middle, time 7 day
[5] = 2 mg/kg, […], dose level Middle, time 14 day
[6] = 2 mg/kg, […], dose level Middle, time 28 day
[7] = 5 mg/kg, 72 h, dose level High, time 3 day
[8] = 5 mg/kg, […], dose level High, time 7 day
[9] = 5 mg/kg, […], dose level High, time 14 day

COc1ccc2c(c1)c(CC(=O)O)c(C)n2C(=O)c1ccc(Cl)cc1 [INDOMETHACIN]
A/G [1]: 1.8
ALP [1]: 725.6 IU/L
ALT [1]: 33.6 IU/L
AST [1]: 60.6 IU/L
BUN [1]: 19.6 mg/dL
CRE [1]: 0.6 mg/dL
Ca [1]: 10.5 mg/dL
Cl [1]: 105.6 meq/L
DBIL [1]: 0.004 mg/dL
GLC [1]: 194.8 mg/dL
IP [1]: 8.1 mg/dL
K [1]: 4.5 meq/L
LDH [1]: 87.2 IU/L
Na [1]: 139.4 meq/L
PL [1]: 165.2 mg/dL
RALB [1]: 4.2 g/dL
TBIL [1]: 0.3 mg/dL
TC [1]: 81.2 mg/dL
TG [1]: 161 mg/dL
TP [1]: 6.5 g/dL
gamma-GTP [1]: 1.4 IU/L
A/G [2]: 1.9
ALP [2]: 695.6 IU/L
ALT [2]: 31 IU/L
AST [2]: 62.6 IU/L
BUN [2]: 21.6 mg/dL
CRE [2]: 0.7 mg/dL
Ca [2]: 10.6 mg/dL
Cl [2]: 106.6 meq/L
DBIL [2]: 0.008 mg/dL
GLC [2]: 203.8 mg/dL
IP [2]: 7.8 mg/dL
K [2]: 4.2 meq/L
LDH [2]: 101.8 IU/L
Na [2]: 139.6 meq/L
PL [2]: 157.8 mg/dL
RALB [2]: 4.2 g/dL
TBIL [2]: 0.3 mg/dL
TC [2]: 77.8 mg/dL
TG [2]: 178.4 mg/dL
TP [2]: 6.5 g/dL
gamma-GTP [2]: 1.2 IU/L
TERMINAL_BW [3]: 238.9 g
APTT [3]: 16 s
Bas [3]: 0%
Eos [3]: 0.6%
Fbg [3]: 218.2 mg/dL
Hb [3]: 13.5 g/dL
Ht [3]: 40.5%
Lym [3]: 82.2%
MCH [3]: 21.1 pg
MCHC [3]: 33.4%
MCV [3]: 63.3 fL
Mono [3]: 6.4%
Neu [3]: 10.8%
PT [3]: 11.1 s
Plat [3]: 112.9 x10_4/uL
RBC [3]: 638.8 x10_4/ul
Ret [3]: 7.1%
WBC [3]: 126.4 x10_2/uL
KIDNEY_L [3]: 1.1 g
KIDNEY_R [3]: 1.1 g
KIDNEY_TOTAL [3]: 2.1 g
LIVER [3]: 11.6 g
A/G [3]: 2.1
ALP [3]: 1212.4 IU/L
ALT [3]: 32.8 IU/L
AST [3]: 62 IU/L
BUN [3]: 17 mg/dL
CRE [3]: 0.6 mg/dL
Ca [3]: 10.5 mg/dL
Cl [3]: 107.2 meq/L
DBIL [3]: 0.058 mg/dL
GLC [3]: 199.6 mg/dL
IP [3]: 8.3 mg/dL
K [3]: 4.9 meq/L
LDH [3]: 91.6 IU/L
Na [3]: 139.6 meq/L
PL [3]: 143.8 mg/dL
RALB [3]: 3.9 g/dL
TBIL [3]: 0.4 mg/dL
TC [3]: 78.2 mg/dL
TG [3]: 64.8 mg/dL
TP [3]: 5.7 g/dL
gamma-GTP [3]: 1 IU/L
TERMINAL_BW [4]: 284.3 g
TERMINAL_BW [5]: 341.8 g
TERMINAL_BW [6]: 428.5 g
APTT [4]: 16.5 s
Bas [4]: 0%
Eos [4]: 1%
Fbg [4]: 240 mg/dL
Hb [4]: 13.7 g/dL
Ht [4]: 41.4%
Lym [4]: 79.8%
MCH [4]: 20.6 pg
MCHC [4]: 33.1%
MCV [4]: 62.2 fL
Mono [4]: 8%
Neu [4]: 11.6%
PT [4]: 11.7 s
Plat [4]: 112.9 x10_4/uL
RBC [4]: 666.6 x10_4/ul
Ret [4]: 6.2%
WBC [4]: 126.6 x10_2/uL
APTT [5]: 16.2 s
Bas [5]: 0%
Eos [5]: 0.8%
Fbg [5]: 236.6 mg/dL
Hb [5]: 14.2 g/dL
Ht [5]: 43.1%
Lym [5]: 86.4%
MCH [5]: 20.5 pg
MCHC [5]: 32.9%
MCV [5]: 62.4 fL
Mono [5]: 5.8%
Neu [5]: 7.2%
PT [5]: 11.8 s
Plat [5]: 114.5 x10_4/uL
RBC [5]: 689.8 x10_4/ul
Ret [5]: 5.1%
WBC [5]: 134.6 x10_2/uL
APTT [6]: 16.9 s
Bas [6]: 0%
Eos [6]: 1%
Fbg [6]: 255.2 mg/dL
Hb [6]: 15.1 g/dL
Ht [6]: 45.3%
Lym [6]: 83.6%
MCH [6]: 19.6 pg
MCHC [6]: 33.4%
MCV [6]: 58.6 fL
Mono [6]: 3.8%
Neu [6]: 11.4%
PT [6]: 11.9 s
Plat [6]: 101.6 x10_4/uL
RBC [6]: 774.2 x10_4/ul
Ret [6]: 3.1%
WBC [6]: 136.4 x10_2/uL
KIDNEY_L [4]: 1.2 g
KIDNEY_R [4]: 1.2 g
KIDNEY_TOTAL [4]: 2.4 g
KIDNEY_L [5]: 1.3 g
KIDNEY_R [5]: 1.3 g
KIDNEY_TOTAL [5]: 2.6 g
KIDNEY_L [6]: 1.5 g
KIDNEY_R [6]: 1.5 g
KIDNEY_TOTAL [6]: 3 g
LIVER [4]: 14.5 g
LIVER [5]: 16.3 g
LIVER [6]: 18.6 g
A/G [4]: 2
ALP [4]: 1041.2 IU/L
ALT [4]: 33.2 IU/L
AST [4]: 61.4 IU/L
BUN [4]: 19.4 mg/dL
CRE [4]: 0.6 mg/dL
Ca [4]: 11.3 mg/dL
Cl [4]: 106.4 meq/L
DBIL [4]: 0.006 mg/dL
GLC [4]: 192.2 mg/dL
IP [4]: 8.4 mg/dL
K [4]: 4.8 meq/L
LDH [4]: 105.8 IU/L
Na [4]: 140 meq/L
PL [4]: 163.8 mg/dL
RALB [4]: 4.1 g/dL
TBIL [4]: 0.4 mg/dL
TC [4]: 88 mg/dL
TG [4]: 134.2 mg/dL
TP [4]: 6.3 g/dL
gamma-GTP [4]: 1 IU/L
A/G [5]: 1.9
ALP [5]: 898.8 IU/L
ALT [5]: 32 IU/L
AST [5]: 53.2 IU/L
BUN [5]: 22.6 mg/dL
CRE [5]: 0.6 mg/dL
Ca [5]: 10.8 mg/dL
Cl [5]: 106.2 meq/L
DBIL [5]: 0.006 mg/dL
GLC [5]: 201.2 mg/dL
IP [5]: 8.3 mg/dL
K [5]: 4.7 meq/L
LDH [5]: 89.8 IU/L
Na [5]: 139.6 meq/L
PL [5]: 151.4 mg/dL
RALB [5]: 4.1 g/dL
TBIL [5]: 0.3 mg/dL
TC [5]: 72.2 mg/dL
TG [5]: 141.2 mg/dL
TP [5]: 6.3 g/dL
gamma-GTP [5]: 1 IU/L
A/G [6]: 1.7
ALP [6]: 678.8 IU/L
ALT [6]: 31.6 IU/L
AST [6]: 65 IU/L
BUN [6]: 21.4 mg/dL
CRE [6]: 0.7 mg/dL
Ca [6]: 10.7 mg/dL
Cl [6]: 107 meq/L
DBIL [6]: 0.004 mg/dL
GLC [6]: 185.2 mg/dL
IP [6]: 7.5 mg/dL
K [6]: 4.4 meq/L
LDH [6]: 90.4 IU/L
Na [6]: 140.4 meq/L
PL [6]: 157.4 mg/dL
RALB [6]: 4.3 g/dL
TBIL [6]: 0.3 mg/dL
TC [6]: 80 mg/dL
TG [6]: 179.2 mg/dL
TP [6]: 6.8 g/dL
gamma-GTP [6]: 1.8 IU/L
TERMINAL_BW [7]: 240.2 g
APTT [7]: 16.8 s
Bas [7]: 0%
Eos [7]: 0.6%
Fbg [7]: 308.4 mg/dL
Hb [7]: 12.7 g/dL
Ht [7]: 38%
Lym [7]: 68.4%
MCH [7]: 21.5 pg
MCHC [7]: 33.5%
MCV [7]: 64.4 fL
Mono [7]: 12.4%
Neu [7]: 18.6%
PT [7]: 11.1 s
Plat [7]: 98 x10_4/uL
RBC [7]: 589.8 x10_4/ul
Ret [7]: 7.9%
WBC [7]: 137.8 x10_2/uL
KIDNEY_L [7]: 1.1 g
KIDNEY_R [7]: 1.1 g
KIDNEY_TOTAL [7]: 2.2 g
LIVER [7]: 12.4 g
A/G [7]: 1.7
ALP [7]: 739.2 IU/L
ALT [7]: 29.8 IU/L
AST [7]: 54 IU/L
BUN [7]: 16.2 mg/dL
CRE [7]: 0.6 mg/dL
Ca [7]: 10.5 mg/dL
Cl [7]: 107.6 meq/L
DBIL [7]: 0.038 mg/dL
GLC [7]: 191.6 mg/dL
IP [7]: 8.3 mg/dL
K [7]: 4.6 meq/L
LDH [7]: 160.4 IU/L
Na [7]: 140.4 meq/L
PL [7]: 147 mg/dL
RALB [7]: 3.4 g/dL
TBIL [7]: 0.3 mg/dL
TC [7]: 76.2 mg/dL
TG [7]: 135.4 mg/dL
TP [7]: 5.5 g/dL
gamma-GTP [7]: 1.6 IU/L
TERMINAL_BW [8]: 244 g
APTT [8]: 18.4 s
Bas [8]: 0%
Eos [8]: 0.8%
Fbg [8]: 377 mg/dL
Hb [8]: 11.7 g/dL
Ht [8]: 35%
Lym [8]: 51.5%
MCH [8]: 20.4 pg
MCHC [8]: 33.4%
MCV [8]: 61.1 fL
Mono [8]: 12.2%
Neu [8]: 36%
PT [8]: 11.8 s
Plat [8]: 143.2 x10_4/uL
RBC [8]: 571.8 x10_4/ul
Ret [8]: 10.2%
WBC [8]: 128.2 x10_2/uL
PT [9]: 11.3 s
KIDNEY_L [8]: 1.1 g
KIDNEY_R [8]: 1.1 g
KIDNEY_TOTAL [8]: 2.2 g
LIVER [8]: 11.6 g
A/G [8]: 1.2
ALP [8]: 1313 IU/L
ALT [8]: 31.2 IU/L
AST [8]: 91.5 IU/L
BUN [8]: 19.8 mg/dL
CRE [8]: 0.6 mg/dL
Ca [8]: 10.8 mg/dL
Cl [8]: 102.2 meq/L
DBIL [8]: 0.1 mg/dL
GLC [8]: 169.8 mg/dL
IP [8]: 11.3 mg/dL
K [8]: 6.1 meq/L
LDH [8]: 180.8 IU/L
Na [8]: 133.5 meq/L
PL [8]: 135.8 mg/dL
RALB [8]: 2.9 g/dL
TBIL [8]: 0.4 mg/dL
TC [8]: 71 mg/dL
TG [8]: 106.5 mg/dL
TP [8]: 5.6 g/dL
gamma-GTP [8]: 5.8 IU/L
TBIL [9]: 0.3 mg/dL
TC [9]: 66.5 mg/dL
